# Patent US20040067894A1, “Preparation having antioxidant properties” (Merck Patent GmbH, priority 2002, published 2004)
# Assay: DPPH assay (free-radical scavenging, antioxidant activity)
# Assay type: biochemical
# Settings: for AE (×10^−3): anti-free-radical efficiency, obtained from EC50 and TEC50; for TEC50: reaction time necessary to achieve the EC50 value
# Method: 2,2-Diphenyl-1-picrylhydrazyl is a free radical which is stable in solution. The unpaired electron results in a strong absorption band at 515 nm, and the solution has a dark violet color. In the presence of a free-radical scavenger, the electron is paired, the absorption disappears, and the decoloration proceeds stoichiometrically taking into account the electrons taken up. The absorbance is measured in a photometer. The anti-free-radical property of the substance to be tested is determined by measuring the concentration at which 50% of the 2,2-diphenyl-1-picrylhydrazyl employed has reacted with the free-radical scavenger. This concentration is expressed as EC50, a value which can be considered to be a property of the substance under the given measurement conditions. The substance investigated is compared with a standard (for example tocopherol). The EC50 value here is a measure of the capacity of the respective compound to scavenge free radicals. The lower the EC50 value, the higher the capacity to scavenge free radicals.
# A further important aspect for the action of the antioxidants is the time in which this EC50 value is reached. This time, measured in minutes, gives the TEC50 value, which allows a conclusion to be drawn on the rate at which these antioxidants scavenge free radicals.
# The antioxidant activity of the compounds according to the invention is determined compared with the activity of quercetin (3,5,7,3′,4′-pentahydroxyflavone) and other conventional antioxidants. The antioxidant activity here is taken to mean the ability to function as hydrogen or electron donor and thus to be able to scavenge free radicals. DPPH assay is used for the determination.
# A stock solution of 2,2-diphenyl-1-picrylhydrazyl (DPPH) in ethanol is prepared (0.025 g/l of DPPH-free radicals). Aliquots of this solution are mixed with various concentrations of the compound to be tested. The absorbance is in each case measured at 515 nm, 25° C. and 1 cm.
# The lower this value, the higher the corresponding antioxidant activity.
# The reaction time necessary to achieve this value is indicated in the value TEC50 (in minutes).
# The anti-free-radical efficiency (AE) is obtained from this in accordance with the following relationship: [formula]
# A higher AE value here indicates a higher activity against free radicals.
compound,measurement,value
"O=C1c2c(O)cc(O)cc2OC(c2ccc(O)c(O)c2)C1O (stereo not shown) [3,5,7,3′,4′-Pentahydroxyflavanone]",AE (×10^−3),5.53 ×10^−3
same,TEC50,1200 min
"O=c1c(O)c(-c2ccc(O)c(O)c2)oc2cc(O)cc(O)c12 [3,5,7,3′,4′-pentahydroxyflavone]",AE (×10^−3),18.72 ×10^−3
same,TEC50,600 min
"O=c1cc(-c2ccccc2)oc2cc(O)c(O)c(O)c12 [5,6,7-Trihydroxyflavone/bacalein, 5,6,7-trihydroxyflavone]",AE (×10^−3),27.78 ×10^−3
same,TEC50,360 min
"O=c1cc(-c2ccc(O)c(O)c2)oc2ccc(O)cc12 [6,3′,4′-Trihydroxyflavone, 6,3′,4′-trihydroxyflavone]",AE (×10^−3),46.30 ×10^−3
same,TEC50,180 min
"O=c1cc(-c2ccc(O)c(O)c2)oc2c(O)c(O)ccc12 [7,8,3′,4′-Tetrahydroxyflavone, 7,8,3′,4′-tetrahydroxyflavone]",AE (×10^−3),18.52 ×10^−3
same,TEC50,600 min
O=C1O[C@H]([C@@H](O)CO)C(O)=C1O [Ascorbic acid],AE (×10^−3),61.72 ×10^−3
same,TEC50,<60 min
COc1cc(/C=C/C(=O)O)ccc1O [Ferulic acid],AE (×10^−3),4.9 ×10^−3
same,TEC50,600 min
Tocopherol,AE (×10^−3),64.1 ×10^−3
same,TEC50,<60 min
